{"source": "paper PMC8086144", "about": "“A novel peptide antagonist of the human growth hormone receptor” (The Journal of Biological Chemistry, 2021)", "assay_type_in_all_cases": "cell-based", "key": {"[1]": {"target": "T1, hGHR (Homo sapiens, UniProt P10912)", "T1 construct": "previously reported to express high levels of endogenous hGHR; host or cells: SK-MEL-28, MALME-3M, IM9", "T1 sequence (P10912 19-638)": "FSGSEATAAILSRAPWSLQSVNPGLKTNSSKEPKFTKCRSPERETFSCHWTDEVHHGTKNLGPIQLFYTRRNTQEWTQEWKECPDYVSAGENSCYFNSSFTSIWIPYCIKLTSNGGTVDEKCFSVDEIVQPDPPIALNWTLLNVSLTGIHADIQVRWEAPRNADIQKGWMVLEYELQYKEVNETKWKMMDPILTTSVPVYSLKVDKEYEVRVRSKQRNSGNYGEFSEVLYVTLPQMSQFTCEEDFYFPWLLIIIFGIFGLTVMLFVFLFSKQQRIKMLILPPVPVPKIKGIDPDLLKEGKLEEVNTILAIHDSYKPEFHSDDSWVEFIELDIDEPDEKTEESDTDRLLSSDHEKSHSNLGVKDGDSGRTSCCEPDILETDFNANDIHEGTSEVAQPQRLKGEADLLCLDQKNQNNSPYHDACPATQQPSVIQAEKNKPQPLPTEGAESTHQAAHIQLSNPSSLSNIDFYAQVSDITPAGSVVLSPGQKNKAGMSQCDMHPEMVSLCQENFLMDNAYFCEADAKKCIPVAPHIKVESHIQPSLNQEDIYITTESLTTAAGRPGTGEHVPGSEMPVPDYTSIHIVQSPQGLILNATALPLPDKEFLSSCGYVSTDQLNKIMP", "assay": "hGH-mediated pSTAT5 in MALME-3M cells, Western blot", "details": "20 min", "experimental": "(§1) SK-MEL-28, MALME-3M, and T84 cells were grown and maintained in Eagle's Minimal Essential Medium. IM9 and L cells were grown in RPMI-1640 media and Dulbecco's modified Eagle's medium, respectively. All growth media was supplemented with 10% fetal bovine serum and 1× antibiotic-antimycotic […] solution. Cells were grown at 37 °C under a 5% CO2 atmosphere in a humidified incubator, and growth media was replaced every 48 h during incubation. No hGH was present in or added to the growth media unless specifically indicated. […]\n(§2) Following treatment, the cells were harvested at the indicated time points, and the total protein was extracted. […] Sample protein concentration was quantified using a Bradford assay with bovine serum albumin as the protein standard. Absorbance at 595 nm was measured using a Spectramax 250 multimode plate reader (Molecular Devices) and processed using SoftmaxPro v4.7.1 software.\n(§3) Cytosolic fractions from treated cells were thawed on ice, and 80 μg protein was loaded onto polyacrylamide gels for separation by SDS-PAGE. […] Chemiluminescence signals were detected using a GelDoc (BioRad) fluorescence imager. […] Percent inhibition was then measured by subtracting the pSTAT5 band intensity in each lane from the pSTAT5 band intensity of hGH-treated samples. […]"}, "[2]": {"target": "T1, hGHR", "assay": "hGH-mediated pSTAT5 in IM9 cells, Western blot", "details": "200 nM S1H with 2.5 nM hGH, 20 min, Western blot densitometry, n = 3", "experimental": "as §1, §2, §3"}, "[3]": {"target": "T1, hGHR", "assay": "hGH-mediated pSTAT5 in SK-MEL-28 cells, Western blot", "details": "20 min, Western blot densitometry, n = 3", "experimental": "as §1, §2, §3"}, "[4]": {"target": "T1, hGHR", "assay": "hGH-mediated pSTAT5 in SK-MEL-28 cells, ELISA", "details": "SK-MEL-28, 20 min, ELISA (pSTAT5A Y694/pSTAT5B Y699), SK-MEL-28 cells co-treated with hGH and 200 nM peptide, Equation 2, triplicate", "experimental": "SK-MEL-28, MALME-3M, and T84 cells were grown and maintained in Eagle's Minimal Essential Medium. IM9 and L cells were grown in RPMI-1640 media and Dulbecco's modified Eagle's medium, respectively. All growth media was supplemented with 10% fetal bovine serum and 1× antibiotic-antimycotic […] solution. Cells were grown at 37 °C under a 5% CO2 atmosphere in a humidified incubator, and growth media was replaced every 48 h during incubation. No hGH was present in or added to the growth media unless specifically indicated. Between 12 to 16 h after seeding, adherent cells (SK-MEL-28, MALME-3M, T84, L cells) were switched to serum-free growth media (no GH) and starved for 4 h before the addition of hGH, bGH (L cells), hPRL (MALME-3M and T84 cells), or buffer at the concentrations noted. Cells were then allowed to incubate for an additional 20 min before being harvested. For suspended cell treatments, IM9 cells were pelleted by centrifugation at 140g for 5 min at room temperature. The supernatant was then removed by aspiration, and the cells were resuspended in serum-free media. The cells were then starved for 4 h at 37 °C under a 5% CO2 atmosphere in a humidified incubator and subsequently treated with hGH, S1H, or both at the indicated concentrations for 20 min before harvesting by centrifugation.\nFollowing treatment, the cells were harvested at the indicated time points, and the total protein was extracted. To affect protein extraction, the treatment media was removed by aspiration, and the cells were washed twice with ice-cold PBS. Following washing, total protein was extracted from the cells using RIPA buffer (100 μl/million cells) supplemented with 1.5× Halt protease and phosphatase inhibitor cocktail. Briefly, chilled RIPA buffer was added to the cells, and the lysis reaction was allowed to incubate for 5 min at 4 °C. Adherent cells were harvested for lysis using a sterile cell scraper. The resultant cell suspensions were sonicated on ice for 60 s with ON (2-s)/OFF (1-s) pulses at 2% power. The cell lysate was then cleared by centrifugation at 8000g for 10 min at 4 °C. Following centrifugation, the supernatant was collected and stored at −80 °C until further use. Sample protein concentration was quantified using a Bradford assay with bovine serum albumin as the protein standard. Absorbance at 595 nm was measured using a Spectramax 250 multimode plate reader (Molecular Devices) and processed using SoftmaxPro v4.7.1 software.\nIntracellular pSTAT5A (Y694) and pSTAT5B (Y699) levels were quantified from clarified protein samples using an InstantOne ELISA kit (Thermo Fisher) according to the manufacturer’s instructions. Briefly, 50 μl of protein sample (1 mg/ml) were added to wells containing 50 μl antibody cocktail in a 96-well plate and incubated at room temperature for 2 h with shaking (300 rpm). Following incubation, the wells were washed, and the bound antibodies were detected by adding detection regent and incubating the plate for 1 h at room temperature with shaking (300 rpm). Following incubation, stop reagent was added, and the absorbance was read at 450 nm using a UV-VIS spectrophotometer (Molecular Devices, model M2). All experiments were performed in triplicate. Percent pSTAT5 inhibition was calculated from background-subtracted pSTAT5 levels using Equation 2:(2) %inhibition=100×(pSTAT5hGH−pSTAT5PI)/pSTAT5hGH where pSTAT5hGH is the fold-induction of pSTAT5 upon treatment with hGH alone and pSTAT5PI is the fold-induction of pSTAT5 upon co-treatment with hGH and peptide inhibitor."}}, "data": [{"smiles": "CC[C@H](C)[C@H](NC(=O)[C@H](Cc1ccc(O)cc1)NC(C)=O)C(=O)N1CCC[C@H]1C(=O)N[C@@H](CCCCN)C(=O)N[C@@H](CCC(=O)O)C(=O)N[C@@H](CCC(N)=O)C(=O)N[C@@H](CCCCN)C(=O)N[C@@H](Cc1ccc(O)cc1)C(=O)N[C@@H](CO)C(=O)N[C@@H](Cc1ccccc1)C(=O)N[C@@H](CC(C)C)C(=O)N[C@@H](CCC(N)=O)C(=O)N[C@@H](CC(N)=O)C(=O)N1CCC[C@H]1C(=O)N[C@@H](CCC(N)=O)C(=O)N[C@H](C(N)=O)[C@@H](C)O", "note": "[S1H]", "values": [{"measurement": "inhibition at 0.05 µM", "setting": "[1]; 50 nM inhibitor with 2.5 nM hGH, Western blot, compared with hGH alone, read-out: inhibition of hGH-induced pSTAT5", "result": 40, "unit": "%"}, {"measurement": "suppression of hGH-mediated pSTAT5", "setting": "[1]; 200 nM S1H with 2.5 nM hGH, Western blot densitometry, n = 3", "result": 56, "unit": "%"}, {"measurement": "suppression of hGH-mediated pSTAT5", "setting": "[2]", "result": 67, "unit": "%"}, {"measurement": "suppression of hGH-mediated pSTAT5", "setting": "[3]; 100 nM S1H with 2.5 nM hGH", "result": 46, "unit": "%"}, {"measurement": "suppression of hGH-mediated pSTAT5", "setting": "[3]; 200 nM S1H with 2.5 nM hGH", "result": 67, "unit": "%"}, {"measurement": "inhibition at 0.2 µM", "setting": "[4]", "result": 98.3, "unit": "%"}]}]}
